Data: ChEMBL document CHEMBL6153135, “Rational Design of a Potent, Selective, and Metabolically Stable CDK9 Inhibitor to Counteract Osimertinib Resistance through Mcl-1 Suppression and Enhanced BRD4 Co-Targeting” (J Med Chem, 2025)
Active and inactive are the calls of the source. The calls are words filed in the database; no cut-off is given here.

What was measured:
[1] = system: Osimertinib-resistant NCI-H1975 cell; test: Induction of apoptosis in human Osimertinib-resistant NCI-H1975 cells assessed as late apoptotic cells at 0.5 uM incubated for 16 hrs by Annexin V-FITC/PI staining based flow cytometry (reference value: 1.42 %); format: functional
[2] = system: Osimertinib-resistant NCI-H1975 cell; test: Anti-proliferative activity against human Osimertinib-resistant NCI-H1975 cells assessed as cell inhibition measured after 72 hrs in presence of 250 nM JQ1 by MTT assay; format: functional, cell-based
[3] = system: Lung adenocarcinoma organoid; test: Anti-tumor activity against Osimertinib-resistant patient (#0416)-derived human Lung adenocarcinoma organoid assessed as inhibition of cell viability measured after 96 hrs; format: functional, tissue-based; conditions: Neoplasm
[4] = AUC (0 to infinity) in BALB/c mouse at 2 mg/kg, iv; format: ADME, organism-based; conditions: in vivo
[5] = system: Osimertinib-resistant HCC827 cell; test: Inhibition of Hippo signaling in human Osimertinib-resistant HCC827 cells in presence of JQ1 by KEGG analysis; format: cell-based
[6] = system: Osimertinib-resistant NCI-H1975 cell; test: Anti-proliferative activity against human Osimertinib-resistant NCI-H1975 cells assessed as cell inhibition measured after 72 hrs by MTT assay; format: functional, cell-based
[7] = Oral bioavailability in Sprague-Dawley rat at 20 mg/kg; format: ADME, organism-based; conditions: in vivo
HCC827 [8] = test: Anti-proliferative activity against human HCC827 cells assessed as cell inhibition measured after 72 hrs in presence of 250 nM JQ1 by MTT assay; format: functional, cell-based; conditions: HCC827, 72 h
[9] = target: Cyclin-dependent kinase 9 (Homo sapiens) (UniProt P50750); test: Inhibition of CDK9 in human Osimertinib-resistant HCC827 cells assessed as decrease in Mcl-1 level at 100 nM incubated for 12 hrs in presence of JQ1 by Western blot analysis; format: cell-based; conditions: Osimertinib-resistant HCC827 cell
Sequence of Cyclin-dependent kinase 9 (Homo sapiens) (P50750 whole entry): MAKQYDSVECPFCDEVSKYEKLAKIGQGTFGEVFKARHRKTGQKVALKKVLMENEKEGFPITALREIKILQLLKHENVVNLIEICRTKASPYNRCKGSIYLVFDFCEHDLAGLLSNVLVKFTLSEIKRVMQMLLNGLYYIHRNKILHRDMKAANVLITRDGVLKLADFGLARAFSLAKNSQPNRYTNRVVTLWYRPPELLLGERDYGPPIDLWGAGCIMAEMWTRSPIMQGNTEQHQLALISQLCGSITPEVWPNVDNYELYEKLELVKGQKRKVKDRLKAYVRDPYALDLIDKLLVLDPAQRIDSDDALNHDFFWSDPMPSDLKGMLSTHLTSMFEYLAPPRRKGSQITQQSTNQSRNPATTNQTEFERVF

NCI-H1975 [10] = test: Anti-proliferative activity against human NCI-H1975 cells assessed as cell inhibition measured after 72 hrs by MTT assay; format: functional, cell-based; conditions: NCI-H1975, 72 h
[11] = system: Osimertinib-resistant NCI-H1975 cell; test: Induction of apoptosis in human Osimertinib-resistant NCI-H1975 cells assessed as early apoptotic cells at 2 uM incubated for 16 hrs by Annexin V-FITC/PI staining based flow cytometry (reference value: 8.02 %); format: functional
NCI-H1975 [12] = test: Anti-proliferative activity against human NCI-H1975 cells assessed as cell inhibition measured after 72 hrs in presence of 100 nM JQ1 by MTT assay; format: functional, cell-based; conditions: NCI-H1975, 72 h
[13] = system: Osimertinib-resistant HCC827 cell; test: Inhibition of chromosome organisation in human Osimertinib-resistant HCC827 cells by KEGG analysis; format: functional, cell-based
[14] = target: Cyclin-dependent kinase 5/CDK5 activator 1 (Homo sapiens) (UniProt Q00535+Q15078); test: Inhibition of CDK5/p35NCK (unknown origin) at 100 nM preincubated for 10 mins followed by substrate/ATP measured after 60 mins by ADP-Glo assay relative to control; format: protein-complex assay; conditions: time 70.0 min
Sequence of Cyclin-dependent kinase 5/CDK5 activator 1 (Homo sapiens) (Q00535 whole entry): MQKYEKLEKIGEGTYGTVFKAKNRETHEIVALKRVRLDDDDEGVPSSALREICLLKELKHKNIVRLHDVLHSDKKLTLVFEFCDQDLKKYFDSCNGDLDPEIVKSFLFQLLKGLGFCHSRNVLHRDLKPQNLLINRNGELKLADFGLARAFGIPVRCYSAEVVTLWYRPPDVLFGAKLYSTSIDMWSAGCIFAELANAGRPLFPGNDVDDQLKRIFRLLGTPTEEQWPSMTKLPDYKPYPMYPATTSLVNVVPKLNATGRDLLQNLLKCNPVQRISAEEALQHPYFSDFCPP
Sequence of Cyclin-dependent kinase 5/CDK5 activator 1 (Homo sapiens) (Q15078 99-307 partner limits assumed): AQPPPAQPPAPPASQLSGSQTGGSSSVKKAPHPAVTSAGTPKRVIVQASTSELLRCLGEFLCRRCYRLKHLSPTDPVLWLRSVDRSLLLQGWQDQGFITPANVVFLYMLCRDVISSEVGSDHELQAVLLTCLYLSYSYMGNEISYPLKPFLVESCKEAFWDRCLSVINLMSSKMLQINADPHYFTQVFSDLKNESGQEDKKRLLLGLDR

[15] = Metabolic stability in pig liver microsomes assessed as clearance measured for 5 to 60 mins by LC-MS/MS analysis; format: ADME, Sus scrofa, Microsome; conditions: time 5-60 min, read-out: CLH
[16] = Antitumor activity against human Osimertinib-resistant HCC827 cells xenografted in BALB-c nude mouse assessed as tumor growth inhibition at 5 mg/kg, iv in presence of JQ1 relative to control; format: functional; conditions: Osimertinib-resistant HCC827 cell, read-out: TGI
[17] = system: Lung adenocarcinoma organoid; test: Anti-tumor activity against Osimertinib-resistant patient (#0243)-derived human Lung adenocarcinoma organoid assessed as inhibition of cell viability measured after 96 hrs relative to control; format: functional, Neoplasm
[18] = Metabolic stability in dog liver microsomes assessed as half life measured for 5 to 60 mins by LC-MS/MS analysis; format: ADME, Canis lupus familiaris, Microsome; conditions: time 5-60 min
[19] = AUC (0 to t) in BALB/c mouse at 15 mg/kg, po; format: ADME, organism-based; conditions: in vivo
[20] = Anti-proliferative activity against human Osimertinib-resistant HCC827 cells assessed as cell inhibition measured after 72 hrs by MTT assay; format: functional, cell-based
[21] = Toxicity in BALB-c mouse xenografted with human NCI-H1975 cells assessed as decrease in body weight at 5 mg/kg, iv; format: organism-based; conditions: in vivo
Homo sapiens = species: Homo sapiens; test: Inhibition of CDK12/Cyclin E1(unknown origin) at 100 nM preincubated for 10 mins followed by substrate/ATP measured after 60 mins by ADP-Glo assay relative to control; conditions: time 70.0 min
A549 = test: Anti-proliferative activity against human A549 cells assessed as cell inhibition measured after 72 hrs by MTT assay; format: functional, cell-based; conditions: A549, 72 h
[22] = Selectivity ratio of IC50 for anti-proliferative activity against human NCI-H1975 cells to IC50 for anti-proliferative activity against human NCI-H1975 cells in presence of JQ1; format: functional
[23] = Apparent volume of distribution in BALB/c mouse at 2 mg/kg, iv; format: ADME, organism-based; conditions: in vivo, read-out: Vz
[24] = system: Lung adenocarcinoma organoid; test: Anti-tumor activity against patient (#2223)-derived human Lung adenocarcinoma organoid assessed as inhibition of cell viability measured after 96 hrs relative to control; format: functional, Neoplasm
[25] = system: Osimertinib-resistant NCI-H1975 cell; test: Anti-proliferative activity against human Osimertinib-resistant NCI-H1975 cells assessed as cell inhibition measured after 72 hrs in presence of 500 nM JQ1 by MTT assay; format: functional, cell-based
[26] = C0 in Sprague-Dawley rat at 2 mg/kg, iv; conditions: in vivo
[27] = target: Cyclin-dependent kinase 9 (Homo sapiens) (UniProt P50750); test: Inhibition of CDK9 in human Osimertinib-resistant HCC827 cells assessed as decrease in Mcl-1 level at 100 to 500 nM incubated for 12 hrs by Western blot analysis; format: cell-based; conditions: Osimertinib-resistant HCC827 cell, dose 100-500 nM
[28] = Half life in BALB/c mouse at 2 mg/kg, iv; format: ADME, organism-based; conditions: in vivo
[29] = target: CDK18/Cyclin Y (Homo sapiens) (UniProt Q07002+Q8ND76); test: Inhibition of CDK18/Cyclin Y(unknown origin) at 100 nM preincubated for 10 mins followed by substrate/ATP measured after 60 mins by ADP-Glo assay relative to control; format: protein-complex assay; conditions: time 70.0 min
[30] = system: Osimertinib-resistant NCI-H1975 cell; test: Anti-proliferative activity against human Osimertinib-resistant NCI-H1975 cells assessed as cell inhibition measured after 72 hrs in presence of 100 nM JQ1 by MTT assay; format: functional, cell-based
[31] = target: CDK3/Cyclin E (Homo sapiens) (UniProt P24864+Q00526); test: Inhibition of CDK3/Cyclin E1 (unknown origin) at 100 nM preincubated for 10 mins followed by substrate/ATP measured after 60 mins by ADP-Glo assay relative to control; format: protein-complex assay; conditions: time 70.0 min
Sequence of CDK3/Cyclin E (Homo sapiens) (P24864 whole entry, looked up): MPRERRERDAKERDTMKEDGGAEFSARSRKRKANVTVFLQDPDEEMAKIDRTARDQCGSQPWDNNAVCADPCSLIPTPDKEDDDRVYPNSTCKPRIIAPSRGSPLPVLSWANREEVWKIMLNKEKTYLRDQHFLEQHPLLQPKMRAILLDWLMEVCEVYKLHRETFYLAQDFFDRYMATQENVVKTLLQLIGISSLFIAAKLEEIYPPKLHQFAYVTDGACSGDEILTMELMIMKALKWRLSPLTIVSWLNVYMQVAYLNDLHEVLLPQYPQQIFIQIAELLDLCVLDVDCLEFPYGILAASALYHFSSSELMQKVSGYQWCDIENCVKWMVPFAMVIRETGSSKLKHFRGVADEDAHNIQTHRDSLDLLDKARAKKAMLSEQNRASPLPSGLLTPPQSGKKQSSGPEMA
Sequence of CDK3/Cyclin E (Homo sapiens) (Q00526 whole entry, looked up): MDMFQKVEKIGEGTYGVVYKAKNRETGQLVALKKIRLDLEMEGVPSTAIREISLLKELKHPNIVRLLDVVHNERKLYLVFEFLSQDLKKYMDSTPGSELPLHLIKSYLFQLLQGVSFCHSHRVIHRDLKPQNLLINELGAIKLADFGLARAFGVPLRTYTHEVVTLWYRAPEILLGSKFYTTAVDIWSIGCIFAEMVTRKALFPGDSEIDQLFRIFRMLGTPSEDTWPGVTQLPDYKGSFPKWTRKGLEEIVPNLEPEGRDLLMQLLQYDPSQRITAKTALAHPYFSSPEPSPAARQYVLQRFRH

[32] = target: Cyclin-dependent kinase 9 (Homo sapiens) (UniProt P50750); test: Inhibition of CDK9 in human Osimertinib-resistant NCI-H1975 cells assessed as decrease in Mcl-1 level incubated for 12 hrs by Western blot analysis; format: cell-based; conditions: Osimertinib-resistant NCI-H1975 cell, dose 50-500 nM
[33] = target: Glycogen synthase kinase-3 beta (Homo sapiens) (UniProt P49841); test: Inhibition of GSK3beta (unknown origin) at 100 nM preincubated for 10 mins followed by substrate/ATP measured after 60 mins by ADP-Glo assay relative to control; conditions: time 70.0 min
Sequence of Glycogen synthase kinase-3 beta (Homo sapiens) (P49841 whole entry, looked up): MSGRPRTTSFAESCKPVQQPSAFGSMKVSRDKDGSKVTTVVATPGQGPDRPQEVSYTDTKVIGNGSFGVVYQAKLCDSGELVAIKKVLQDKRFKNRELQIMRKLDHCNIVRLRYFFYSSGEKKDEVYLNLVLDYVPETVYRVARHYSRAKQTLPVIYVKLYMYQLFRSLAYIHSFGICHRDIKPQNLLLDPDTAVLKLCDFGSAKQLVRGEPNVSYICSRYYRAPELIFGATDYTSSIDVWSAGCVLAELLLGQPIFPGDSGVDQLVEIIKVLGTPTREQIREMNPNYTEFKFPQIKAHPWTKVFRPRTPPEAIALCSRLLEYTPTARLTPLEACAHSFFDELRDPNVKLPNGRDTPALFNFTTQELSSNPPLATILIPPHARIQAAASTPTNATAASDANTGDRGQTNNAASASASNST

HCC827 [34] = test: Anti-proliferative activity against human HCC827 cells assessed as cell inhibition measured after 72 hrs by MTT assay; format: functional, cell-based; conditions: HCC827, 72 h
[35] = Metabolic stability in rat liver microsomes assessed as clearance measured for 5 to 60 mins by LC-MS/MS analysis; format: ADME, Microsome; conditions: time 5-60 min, read-out: CLH

IC50 [2]: 14.6 nM
IC50 [3]: < 10 nM
AUC(0-inf) [4]: 396 ng·h/mL
IC50 [6]: 50 nM
bioavailability [7]: 14.3%
IC50 (HCC827 [8]): 19.3 nM
inhibition [9]: Active
IC50 (NCI-H1975 [10]): 110 nM
IC50 (NCI-H1975 [12]): 133 nM
inhibition [14]: 7.24%
microsomal CLint [15]: 35.3 µL/min/mg
half-life [18]: 1.25 h
AUC(0-t) [19]: 754 ng·h/mL
inhibition (Homo sapiens): 23.7%
IC50 (A549): 140 nM
Vd [23]: 30.7 L/kg
IC50 [25]: 4.3 nM
C0 [26]: 2527 ng/mL
inhibition [27]: Active
half-life [28]: 4.2 h
inhibition [29]: 5.98%
IC50 [30]: 26.8 nM
inhibition [31]: 9.68%
inhibition [32]: Dose-dependent-effect
inhibition [33]: 94.1%
IC50 (HCC827 [34]): 150 nM
microsomal CLint [35]: 38.4 µL/min/mg
Compound: CC(=O)N1CCC(NC(=O)c2ccc3cc2OCCCCCCOc2cc(ccc2F)-c2nc(ncc2F)N3)CC1
Activity [1]: 10%
inhibition [5]: Active
Activity [11]: 26%
inhibition [13]: Active
inhibition in vivo at 5 mg/kg [16]: 71.5%
Imax [17]: >98%
IC50 [20]: 63.9 nM
Activity [21]: Non-toxic
Ratio IC50 [22]: 10
Imax [24]: 99.9%
